Measured values as given in article PMC3534778 (European journal of pharmacology, 2012).
Values joined by “and” are separate entries in the source; they are usually repeats but may differ in a detail not shown here. Equal values may be shown once. “Also recorded” adds a separate entry of the source. Read-outs that look alike come from different tables or passages of the source.

Assays:
[1] = human, in vivo; cited from earlier work
[2] = target: rat α3β4-nicotinic acetylcholine receptor (Rattus norvegicus, UniProt P04757+P12392); format: cell-based; details: read-out: IC50, inhibition of (S)-nicotine-induced whole-cell current
Sequence of rat α3β4-nicotinic acetylcholine receptor (P04757 26-499): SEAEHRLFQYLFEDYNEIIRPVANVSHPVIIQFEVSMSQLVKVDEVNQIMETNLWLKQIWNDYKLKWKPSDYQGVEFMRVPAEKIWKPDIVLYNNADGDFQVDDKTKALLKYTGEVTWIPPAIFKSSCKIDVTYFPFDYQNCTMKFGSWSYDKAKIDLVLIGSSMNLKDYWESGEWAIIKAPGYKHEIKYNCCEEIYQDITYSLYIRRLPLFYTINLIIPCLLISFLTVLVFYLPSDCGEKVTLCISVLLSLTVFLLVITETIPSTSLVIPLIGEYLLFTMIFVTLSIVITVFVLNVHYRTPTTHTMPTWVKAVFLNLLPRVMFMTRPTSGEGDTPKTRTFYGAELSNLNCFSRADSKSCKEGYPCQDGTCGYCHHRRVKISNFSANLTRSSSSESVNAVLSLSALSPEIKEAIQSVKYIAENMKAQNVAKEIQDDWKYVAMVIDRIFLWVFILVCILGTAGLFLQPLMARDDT
Sequence of rat α3β4-nicotinic acetylcholine receptor (P12392 21-495): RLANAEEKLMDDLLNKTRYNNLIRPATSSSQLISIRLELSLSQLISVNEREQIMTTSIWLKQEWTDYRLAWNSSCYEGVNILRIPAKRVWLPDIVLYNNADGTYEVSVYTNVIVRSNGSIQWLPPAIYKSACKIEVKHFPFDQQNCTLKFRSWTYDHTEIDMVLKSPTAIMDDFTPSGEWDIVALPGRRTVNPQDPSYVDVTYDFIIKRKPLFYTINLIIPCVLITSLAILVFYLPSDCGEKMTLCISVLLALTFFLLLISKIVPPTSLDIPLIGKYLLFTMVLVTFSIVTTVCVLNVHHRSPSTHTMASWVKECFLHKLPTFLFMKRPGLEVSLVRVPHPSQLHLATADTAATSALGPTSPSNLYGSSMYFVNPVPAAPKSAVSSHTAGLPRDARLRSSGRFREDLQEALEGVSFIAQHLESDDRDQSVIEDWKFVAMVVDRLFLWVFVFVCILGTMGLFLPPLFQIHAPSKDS

[3] = target: rat α7-nicotinic acetylcholine receptor (Rattus norvegicus, UniProt Q05941); format: cell-based
Sequence of rat α7-nicotinic acetylcholine receptor (Q05941 23-502): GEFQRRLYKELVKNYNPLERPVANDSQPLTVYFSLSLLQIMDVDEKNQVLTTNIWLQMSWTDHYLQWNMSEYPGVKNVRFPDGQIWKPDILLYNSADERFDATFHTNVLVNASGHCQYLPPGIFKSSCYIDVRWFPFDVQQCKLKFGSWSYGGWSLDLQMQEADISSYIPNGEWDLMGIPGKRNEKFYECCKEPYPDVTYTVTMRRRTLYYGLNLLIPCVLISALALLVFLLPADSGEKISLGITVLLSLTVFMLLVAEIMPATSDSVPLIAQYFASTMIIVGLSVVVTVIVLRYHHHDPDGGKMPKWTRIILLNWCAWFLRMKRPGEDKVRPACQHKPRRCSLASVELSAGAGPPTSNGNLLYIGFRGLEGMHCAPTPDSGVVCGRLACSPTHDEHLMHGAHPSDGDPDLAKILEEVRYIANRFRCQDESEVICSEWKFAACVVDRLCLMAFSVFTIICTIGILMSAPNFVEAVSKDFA

[4] = target: α4β2-nicotinic acetylcholine receptor (Homo sapiens, UniProt P17787+P43681); assay: Acetylcholine-evoked currents in α4β2-nicotinic acetylcholine receptor; format: cell-based
Sequence of α4β2-nicotinic acetylcholine receptor (P43681 29-627 limits assumed): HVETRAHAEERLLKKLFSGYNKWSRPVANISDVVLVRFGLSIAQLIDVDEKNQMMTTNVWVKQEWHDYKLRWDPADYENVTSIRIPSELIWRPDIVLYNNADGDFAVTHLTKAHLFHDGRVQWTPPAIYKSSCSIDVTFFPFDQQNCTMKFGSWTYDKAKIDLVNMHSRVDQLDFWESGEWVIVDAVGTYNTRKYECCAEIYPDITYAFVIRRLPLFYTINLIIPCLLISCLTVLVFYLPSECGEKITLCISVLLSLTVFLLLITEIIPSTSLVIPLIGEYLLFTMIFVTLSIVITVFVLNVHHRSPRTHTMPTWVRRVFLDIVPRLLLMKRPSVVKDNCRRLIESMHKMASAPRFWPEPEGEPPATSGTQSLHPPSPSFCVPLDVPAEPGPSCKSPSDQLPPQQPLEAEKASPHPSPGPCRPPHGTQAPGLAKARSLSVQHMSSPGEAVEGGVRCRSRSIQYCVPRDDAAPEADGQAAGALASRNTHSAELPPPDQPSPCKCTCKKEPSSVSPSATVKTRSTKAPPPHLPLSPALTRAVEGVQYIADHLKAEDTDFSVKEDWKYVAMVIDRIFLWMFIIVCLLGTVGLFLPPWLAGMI
Sequence of α4β2-nicotinic acetylcholine receptor (P17787 26-502 limits assumed): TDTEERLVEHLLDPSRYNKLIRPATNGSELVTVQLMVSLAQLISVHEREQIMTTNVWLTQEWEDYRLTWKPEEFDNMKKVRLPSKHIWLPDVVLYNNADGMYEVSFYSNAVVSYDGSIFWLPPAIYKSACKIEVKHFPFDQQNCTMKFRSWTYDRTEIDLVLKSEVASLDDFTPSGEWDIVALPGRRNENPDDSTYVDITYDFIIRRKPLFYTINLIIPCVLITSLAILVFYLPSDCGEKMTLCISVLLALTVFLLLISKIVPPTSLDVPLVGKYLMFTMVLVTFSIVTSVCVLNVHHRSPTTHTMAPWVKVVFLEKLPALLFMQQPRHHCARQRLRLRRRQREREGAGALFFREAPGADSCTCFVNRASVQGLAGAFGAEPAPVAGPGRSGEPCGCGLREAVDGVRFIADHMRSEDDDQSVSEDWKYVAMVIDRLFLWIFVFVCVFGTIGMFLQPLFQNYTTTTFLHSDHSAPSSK

[5] = target: α7-nicotinic acetylcholine receptor (Rattus norvegicus, UniProt Q05941); format: binding
Sequence of α7-nicotinic acetylcholine receptor (Q05941 23-502): as the sequence (Q05941 23-502) above

[6] = target: NMDA receptor; format: binding, rat

Compound	IC50 [2] [µM]	Mean current evoked by 280 μM acetylcholine, normalized to acetylcholine alone [3]	Displacement of [3H]-epibatidine [5]	Displacement of [125I]-α-bungarotoxin [5]	Ki [6]	also measured
CNC1(c2ccccc2Cl)CCCCC1=O (racemic) [(R,S)-Ketamine, reference compound]	3.1					Patients reporting a positive response [1]: 41%; Response rate [1]: 30%; Effect on acetylcholine-induced current [3]: inactive; also recorded: no observable effect
NC1(c2ccccc2Cl)CCC=CC1=O (racemic) [(R,S)-dehydronorketamine]	> 200	0.407 and 0.205	did not competitively displace	did not competitively displace		Current activation (agonist effect) [3]: No measurable effect; Hill coefficient nH [3]: 0.66 ± 0.05; Inhibition of acetylcholine-induced current [3]: ~ 60%; Voltage dependence of the inhibitory effect [3]: voltage-independent; Inhibition of ACh-induced whole-cell current ([3]; 0.03 µM): 45%; IC50 ([3]; read-out: IC50, inhibition of acetylcholine-evoked current): 0.055 ± 0.006 µM; Effect on acetylcholine-evoked currents [4]: no effect
NC1(c2ccccc2Cl)CCCCC1=O (racemic) [(R,S)-norketamine]	9.1					Inhibition of acetylcholine-induced current ([3]; 100 nM compound, 280 μM acetylcholine): ~ 45%; Mean current evoked by 280 μM acetylcholine, normalized to acetylcholine alone ([3]; 100 nM compound, −80 mV, n = 4, fraction of current remaining): 0.548; Mean current evoked by 280 μM acetylcholine, normalized to acetylcholine alone ([3]; 1000 nM compound, −80 mV, n = 4, fraction of current remaining): 0.287
N[C@@]1(c2ccccc2Cl)CCC[C@@H](O)C1=O [(2R,6R)-hydroxynorketamine]	> 200	0.354 and 0.489			> 100 µM	
N[C@]1(c2ccccc2Cl)CCC[C@H](O)C1=O [(2S,6S)-hydroxynorketamine]	> 200	0.461 and 0.361			21 µM and 21.2 µM	
N[C@@]1(c2ccccc2Cl)CCC=CC1=O [(R)-Dedhydronorketamine, (R)-dehydronorketamine]			not displaced	did not displace	74.5 µM	
N[C@@]1(c2ccccc2Cl)CCCCC1=O [(R)-norKetamine, (R)-norketamine]					26.5 µM	
N[C@]1(c2ccccc2Cl)CCC=CC1=O [(S)-Dehydronorketamine, (S)-dehydronorketamine]			not displaced	did not displace	39 µM	
N[C@]1(c2ccccc2Cl)CCCCC1=O [(S)-norKetamine, (S)-norketamine]					2.25 ± 0.22 µM	
